Reference: patent publication US20260285850A1, “SUBSTITUTED OXAZOLIDINONES AND IMIDAZOLINONES AS HERBICIDES” (FMC CORPORATION, priority 2023, published 2026)

How the values were obtained:
Assay type in all cases: in vivo
[1] = tested on: palmer (palmer amaranth, palmer pigweed, Amaranthus palmeri); test: Test A preemergence soil spray, visual injury rating 0-100; settings: 10 days, 0 = no effect, 100 = complete control
Procedure, shortened: (§1)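 Visual injury ratings (0, no effect; 100, complete control) were assigned relative to untreated plants 10 days after treatment. Test chemicals, formulated with a surfactant-containing non-phytotoxic solvent, were applied in loam-sand soil either as a directed soil spray before emergence or to emerged plants, and plants were kept in a greenhouse.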

[2] = tested on: barnyardgrass (Echinochloa crus-galli); test: as above; settings: 10 days, 0 = no effect, 100 = complete control
Procedure, shortened: as §1

[3] = tested on: ryegrass, Italian (italian ryegrass, Lolium multiflorum); test: as above; settings: 10 days, 0 = no effect, 100 = complete control
Procedure, shortened: as §1

corn (Zea mays) [4] = test: as above; settings: 10 days, 0 = no effect, 100 = complete control
Procedure, shortened: as §1

soybean (Glycine max) [5] = test: as above; settings: 10 days, 0 = no effect, 100 = complete control
Procedure, shortened: as §1

[6] = tested on: green foxtail (Setaria viridis); test: as above; settings: 10 days, 0 = no effect, 100 = complete control
Procedure, shortened: as §1

[7] = tested on: wheat (Triticum aestivum); test: as above; settings: 10 days, 0 = no effect, 100 = complete control
Procedure, shortened: as §1

[8] = tested on: ragweed (common ragweed, Ambrosia artemisiifolia); test: as above; settings: 10 days, 0 = no effect, 100 = complete control
Procedure, shortened: as §1

[9] = tested on: oat, wild (wild oat, Avena fatua); test: as above; settings: 10 days, 0 = no effect, 100 = complete control
Procedure, shortened: as §1

[10] = tested on: blackgrass (Alopecurus myosuroides); test: as above; settings: 10 days, 0 = no effect, 100 = complete control
Procedure, shortened: as §1

kochia (Bassia scoparia) [11] = test: as above; settings: 10 days, 0 = no effect, 100 = complete control
Procedure, shortened: as §1

[12] = tested on: palmer (palmer amaranth, palmer pigweed, Amaranthus palmeri); test: Test A postemergence application, visual injury rating 0-100; settings: Postemergence, 10 days, 0 is no effect, 100 is complete control
Procedure, shortened: as §1

[13] = tested on: horseweed (Erigeron canadensis); test: as above; settings: Postemergence, 10 days, 0 is no effect, 100 is complete control
Procedure, shortened: as §1

[14] = tested on: barnyardgrass (Echinochloa crus-galli); test: as above; settings: Postemergence, 10 days, 0 is no effect, 100 is complete control
Procedure, shortened: as §1

[15] = tested on: ryegrass, Italian (italian ryegrass, Lolium multiflorum); test: as above; settings: Postemergence, 10 days, 0 is no effect, 100 is complete control
Procedure, shortened: as §1

corn (Zea mays) [16] = test: as above; settings: Postemergence, 10 days, 0 is no effect, 100 is complete control
Procedure, shortened: as §1

soybean (Glycine max) [17] = test: as above; settings: Postemergence, 10 days, 0 is no effect, 100 is complete control
Procedure, shortened: as §1

[18] = tested on: green foxtail (Setaria viridis); test: as above; settings: Postemergence, 10 days, 0 is no effect, 100 is complete control
Procedure, shortened: as §1

[19] = tested on: wheat (Triticum aestivum); test: as above; settings: Postemergence, 10 days, 0 is no effect, 100 is complete control
Procedure, shortened: as §1

[20] = tested on: ragweed (common ragweed, Ambrosia artemisiifolia); test: as above; settings: Postemergence, 10 days, 0 is no effect, 100 is complete control
Procedure, shortened: as §1

[21] = tested on: galium (catchweed bedstraw, Galium aparine); test: as above; settings: Postemergence, 10 days, 0 is no effect, 100 is complete control
Procedure, shortened: as §1

[22] = tested on: oat, wild (wild oat, Avena fatua); test: as above; settings: Postemergence, 10 days, 0 is no effect, 100 is complete control
Procedure, shortened: as §1

[23] = tested on: blackgrass (Alopecurus myosuroides); test: as above; settings: Postemergence, 10 days, 0 is no effect, 100 is complete control
Procedure, shortened: as §1

kochia (Bassia scoparia) [24] = test: as above; settings: Postemergence, 10 days, 0 is no effect, 100 is complete control
Procedure, shortened: as §1

rice (Oryza sativa) = test: Test B flooded paddy test, visual plant response rating 0-100; settings: 250 g ai/ha, Flood, applied to paddy water, evaluated after 13 days
Procedure, shortened: (§2)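 Visual scores versus untreated controls were recorded 13 days after treatment of greenhouse-held plants. At the 2-leaf stage, pots were flooded 3 cm above the soil surface and compounds added straight to the water.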

[25] = tested on: barnyardgrass (Echinochloa crusgalli); test: as above; settings: 250 g ai/ha, Flood, applied to paddy water, evaluated after 13 days
Procedure, shortened: as §2

[26] = tested on: sedge, umbrella (small-flower umbrella sedge, Cyperus difformis); test: as above; settings: 250 g ai/ha, Flood, applied to paddy water, evaluated after 13 days
Procedure, shortened: as §2

[27] = tested on: ducksalad (Heteranthera limosa); test: as above; settings: 250 g ai/ha, Flood, applied to paddy water, evaluated after 13 days
Procedure, shortened: as §2

## COC(=O)C1C=CC(NC(=O)C2(C)CN(c3cc(Cl)cc(Cl)c3)C(=O)O2)C1 (stereo not shown) [Compound 42]
[1]; 125 g ai/ha
  Amaranth, Palmer plant response rating (0 to 100 scale): 100
[1]; 500 g ai/ha
  Amaranth, Palmer plant response rating (0 to 100 scale): 100
[2]; 125 g ai/ha
  Barnyardgrass plant response rating (0 to 100 scale): 100
[2]; 500 g ai/ha
  Barnyardgrass plant response rating (0 to 100 scale): 100
[3]; 125 g ai/ha
  Ryegrass, Italian plant response rating (0 to 100 scale): 90
[3]; 500 g ai/ha
  Ryegrass, Italian plant response rating (0 to 100 scale): 100
Corn (Zea mays) [4]; 125 g ai/ha
  Corn plant response rating (0 to 100 scale): 90
Corn (Zea mays) [4]; 500 g ai/ha
  Corn plant response rating (0 to 100 scale): 90
Soybean (Glycine max) [5]; 125 g ai/ha
  Soybean plant response rating (0 to 100 scale): 40
Soybean (Glycine max) [5]; 500 g ai/ha
  Soybean plant response rating (0 to 100 scale): 70
[6]; 125 g ai/ha
  Foxtail, Green plant response rating (0 to 100 scale): 100
[6]; 500 g ai/ha
  Foxtail, Green plant response rating (0 to 100 scale): 100
[7]; 125 g ai/ha
  Wheat plant response rating (0 to 100 scale): 90
[7]; 500 g ai/ha
  Wheat plant response rating (0 to 100 scale): 90
[8]; 125 g ai/ha
  Ragweed plant response rating (0 to 100 scale): 20
[8]; 500 g ai/ha
  Ragweed plant response rating (0 to 100 scale): 80
[9]; 125 g ai/ha
  Oat, Wild plant response rating (0 to 100 scale): 90
[9]; 500 g ai/ha
  Oat, Wild plant response rating (0 to 100 scale): 90
[10]; 125 g ai/ha
  Blackgrass plant response rating (0 to 100 scale): 90
[10]; 500 g ai/ha
  Blackgrass plant response rating (0 to 100 scale): 100
Kochia (Bassia scoparia) [11]; 125 g ai/ha
  Kochia plant response rating (0 to 100 scale): 90
Kochia (Bassia scoparia) [11]; 500 g ai/ha
  Kochia plant response rating (0 to 100 scale): 90
[12]; 125 g ai/ha
  Amaranth, Palmer / Pigweed, Palmer plant response rating (0 to 100 scale): 100
[12]; 500 g ai/ha
  Amaranth, Palmer / Pigweed, Palmer plant response rating (0 to 100 scale): 100
[13]; 125 g ai/ha
  Horseweed plant response rating (0 to 100 scale): 80
[13]; 500 g ai/ha
  Horseweed plant response rating (0 to 100 scale): 90
[14]; 125 g ai/ha
  Barnyardgrass plant response rating (0 to 100 scale): 100
[14]; 500 g ai/ha
  Barnyardgrass plant response rating (0 to 100 scale): 100
[15]; 125 g ai/ha
  Ryegrass, Italian plant response rating (0 to 100 scale): 90
[15]; 500 g ai/ha
  Ryegrass, Italian plant response rating (0 to 100 scale): 90
Corn (Zea mays) [16]; 125 g ai/ha
  Corn plant response rating (0 to 100 scale): 100
Corn (Zea mays) [16]; 500 g ai/ha
  Corn plant response rating (0 to 100 scale): 100
Soybean (Glycine max) [17]; 125 g ai/ha
  Soybean plant response rating (0 to 100 scale): 90
Soybean (Glycine max) [17]; 500 g ai/ha
  Soybean plant response rating (0 to 100 scale): 80
[18]; 125 g ai/ha
  Foxtail, Green plant response rating (0 to 100 scale): 90
[18]; 500 g ai/ha
  Foxtail, Green plant response rating (0 to 100 scale): 90
[19]; 125 g ai/ha
  Wheat plant response rating (0 to 100 scale): 90
[19]; 500 g ai/ha
  Wheat plant response rating (0 to 100 scale): 90
[20]; 125 g ai/ha
  Ragweed plant response rating (0 to 100 scale): 70
[20]; 500 g ai/ha
  Ragweed plant response rating (0 to 100 scale): 80
[21]; 125 g ai/ha
  Galium plant response rating (0 to 100 scale): 70
[21]; 500 g ai/ha
  Galium plant response rating (0 to 100 scale): 80
[22]; 125 g ai/ha
  Oat, Wild plant response rating (0 to 100 scale): 90
[22]; 500 g ai/ha
  Oat, Wild plant response rating (0 to 100 scale): 90
[23]; 125 g ai/ha
  Blackgrass plant response rating (0 to 100 scale): 100
[23]; 500 g ai/ha
  Blackgrass plant response rating (0 to 100 scale): 100
Kochia (Bassia scoparia) [24]; 125 g ai/ha
  Kochia plant response rating (0 to 100 scale): 80
Kochia (Bassia scoparia) [24]; 500 g ai/ha
  Kochia plant response rating (0 to 100 scale): 80
Rice (Oryza sativa)
  Plant response rating, Rice (0 to 100 scale, 0 is no effect and 100 is complete control): 15
[25]
  Plant response rating, Barnyardgrass (0 to 100 scale, 0 is no effect and 100 is complete control): 95
[26]
  Plant response rating, Sedge, Umbrella (0 to 100 scale, 0 is no effect and 100 is complete control): 95
[27]
  Plant response rating, Ducksalad (0 to 100 scale, 0 is no effect and 100 is complete control): 90
